ChEMBL document CHEMBL5104130, “Synthesis of a tricyclic hexapeptide -via two consecutive ruthenium-catalyzed macrocyclization steps- with a constrained topology to mimic vancomycin's binding properties toward D-Ala-D-Ala dipeptide” (2022)
≈ marks a conversion by molar mass, not a printed value.

System: Staphylococcus aureus
Assay: Antibacterial activity against vancomycin-sensitive Staphylococcus aureus ATCC 49320 assessed as inhibition of bacterial growth incubated for 24 hrs
Format: functional

Which MIC does the source give for `CN[C@H](CC(C)C)C(=O)N[C@@H]1CCCCn2nncc2-c2cc3cc(c2OC)-c2cnnn2CCCC[C@@H]2NC(=O)[C@@H](C/C=C/Cc4ccccc4NC2=O)NC(=O)[C@@H]3NC(=O)[C@H](C)NC1=O` here?
Its MIC is 37.5 µg/mL (≈ 40.8 µM).
